Here are results for two molecules from US12076354B2, “Antibiotic with spirulina platensis and plant extracts” (KING FAISAL UNIVERSITY, priority 2022, dated 2024).

The subject of assay [1] is multidrug resistant strain of Acinetobacter baumannii. In words: Disk diffusion susceptibility method, MDR Acinetobacter baumannii isolate. Format: cell-based. The note with it: isolated MDR strain from patients with Type 2 Diabetes Mellitus; disks with 20 μl antibiotic composition, 10 μg colistin or 15 μg Tigecycline; 2 hours at 4° C., then 37° C. How it is done: (§1) The antibiotic composition was tested using the disk diffusion susceptibility method previously published by Bauer et al. (Bauer, A. W., et al., “Antibiotic susceptibility testing by a standardized single disk method,” Amer J Clin Pathol 45: pp. 495-496 ([…])). Briefly, a multidrug resistant strain of Acinetobacter baumannii was isolated from patients with Type 2 Diabetes Mellitus in a hospital setting in Saudi Arabia. Whatman No. 1 sterilized-paper disks were saturated with 20 μl of the antibiotic composition. Disks were then dried and placed on the surface of a medium inoculated with either the isolated MDR Acinetobacter baumannii or Acinetobacter baumannii (ATCC17978). A further test was run using either 10 μg colistin or 15 μg Tigecycline as controls. The plates containing the inoculated medium were kept for 2 hours at 4° C. to ensure the diffusion of the bioactive material, and then were incubated at 37° C. Disks containing 30 μl of water were used as a negative control.
(In agar diffusion tests the substance spreads into inoculated agar from a disc or well.)

In assay [2] the test system is Acinetobacter baumannii (ATCC17978). In words: Disk diffusion susceptibility method, Acinetobacter baumannii ATCC17978. It counts as cell-based. Particulars: disks with 20 μl antibiotic composition, 10 μg colistin or 15 μg Tigecycline, 2 hours at 4° C., then 37° C. How it is done:
as §1

With `CN(C)c1cc(NC(=O)CNC(C)(C)C)c(O)c2c1C[C@H]1C[C@H]3[C@H](N(C)C)C(O)=C(C(N)=O)C(=O)[C@@]3(O)C(O)=C1C2=O` [Tigecycline], the zones of inhibition entry in assay [1] and in assay [2] was “not around the traditional antibiotic controls” in each case.
As to colistin, the zones of inhibition entry in assay [1] and in assay [2] was “not around the traditional antibiotic controls” throughout.
